These are literature values, as cited in patent US8039631B2, “Process for preparing crystalline form A of Lansoprazole” (Daewoong Pharmaceutical Co., Ltd., priority 2006, dated 2011).

Assay in series [1]: not given
The source holds these as a separate data set.

Read-outs that look alike come from different tables or passages of the source.

Turning to `Cc1c(OCC(F)(F)F)ccnc1C[S+]([O-])c1nc2ccccc2[nH]1` (centres unmarked) [Form A, Lansoprazole], the “stability (change) when stored” value (stored for one year at room temperature or elevated temperature) is “does not change”.
As for `Cc1c(OCC(F)(F)F)ccnc1C[S+]([O-])c1nc2ccccc2[nH]1` (centres unmarked) [Form B, Lansoprazole], for the setting “at elevated temperature”, the “change in the crystalline form on storage” value is reported as “some change in the crystalline form”. In addition, the stability when stored entry (stored for one year at a low temperature (0° C. or lower)) is recorded as “high stability”. For the same compound, the “conversion of Form B to Form A” value in series [1] (at 40° C.) is “rapidly”; in series [1] (at a temperature of 10° C. or lower) it was “slowly converted to Form A”.
